Laboratory results taken from patent US20150140121A1, “Compositions and Methods for Tight Junction Modulation” (Lankenau Institute for Medical Research, priority 2012, published 2015).
Read-outs that look alike come from different tables or passages of the source.

What was measured:
[1] = tested on: epithelial TJs; details: arginine; Rhoads et al. 2009; cited from earlier work
[2] = tested on: human colonic (CACO-2) epithelial cell layer; details: cited from earlier work
[3] = tested on: human colonic (CACO-2) epithelial cell layer; details: cited from earlier work; remark: listed apart in the source
[4] = tested on: TJ; details: glutamine; Seth et al. 2004; cited from earlier work
[5] = tested on: claudin-1; details: cited from earlier work
[6] = tested on: Claudin-5; test: Claudin-5 expression in LLC-PK1 cell layers (Western immunoblot); type: cell-based, porcine; details: for Claudin-5: LLC-PK1 cell layers, given as Incr (increase); for expression of Claudin 5: LLC-PK1 cells
Source text: (§1) Zinc has long been known to be efficacious in the treatment of certain types of diarrhea. It has been determined that zinc can render certain TJ barriers less leaky. Zinc effects can vary depending upon the specific type of epithelial layer.

[7] = tested on: Claudin-7; test: Claudin-7 expression in LLC-PK1 cell layers; type: cell-based, porcine
[8] = tested on: claudin-2; details: indole 1 mM; HCT-8 cell layers; Bansal et al. 2010; cited from earlier work
[9] = tested on: human colonic (HCT-8) epithelial cell layers; details: indole 1 mM; HCT-8 cell layers; Bansal et al. 2010; cited from earlier work
[10] = tested on: Tricellulin; test: Tricellulin expression in LLC-PK1 cell layers (Western immunoblot); type: cell-based, porcine; details: for Tricellulin: LLC-PK1 cell layers, given as Decr (decrease)
Source text: as §1

[11] = tested on: Claudin-3; test: Claudin-3 expression in LLC-PK1 cell layers (Western immunoblot); type: cell-based, porcine; details: for Claudin-3: LLC-PK1 cell layers, given as Decr (decrease)
Source text: as §1

[12] = tested on: LLC-PK1 cell layers; test: Transepithelial electrical resistance (Rt) across LLC-PK1 cell layers; type: cell-based, porcine; details: for transepithelial resistance: LLC-PK1 cell layers
Experimental: (§2) LLC-PK1 is a porcine cell line model of the kidney proximal tubule.
The effect of zinc and/or quercetin on the electrical resistance across LLC-PK1 renal epithelial cell layers was tested. Briefly, LLC-PK1 renal epithelial cell layers were treated with either 100 μM zinc alone, 400 μM quercetin alone; or both agents together. The stimulation of transepithelial electrical resistance (Rt) by maximally effective concentrations of zinc alone and quercetin alone was in the range of 50-60% of control levels. […] The results shown in FIG. 8 represent the mean+/− standard error for 12 cell layers. P values are for one-sided Student's t tests.

[13] = tested on: Claudin-4; test: Claudin-4 expression in LLC-PK1 cell layers (Western immunoblot); type: cell-based, porcine; details: for Claudin-4: LLC-PK1 cell layers, given as Incr (increase)
Source text: as §1

[14] = tested on: Occludin; test: Occludin expression in LLC-PK1 cell layers (Western immunoblot); type: cell-based, porcine
Source text: as §1

[15] = tested on: Claudin-1; test: Claudin-1 expression in LLC-PK1 cell layers (Western immunoblot); type: cell-based, porcine
Source text: as §1

[16] = tested on: Claudin-2; test: Claudin-2 expression in LLC-PK1 cell layers (Western immunoblot); type: cell-based, porcine; details: for Claudin-2: LLC-PK1 cell layers, given as Decr (decrease)
Source text: as §1

[17] = tested on: claudin 7; details: quercetin 0.2 mM; CACO-2; Amasheh et al. 2008; cited from earlier work
[18] = tested on: claudin-4; details: cited from earlier work
[19] = tested on: ZO-2; details: quercetin; independent study, Suzuki et al. 2009; cited from earlier work
[20] = tested on: claudin 3; details: quercetin 0.2 mM; CACO-2; Amasheh et al. 2008; cited from earlier work
[21] = tested on: LLC-PK1 cell layers; test: Mannitol flux / leak across LLC-PK1 cell layers; type: cell-based, porcine; details: for Mannitol Flux / mannitol leaking across the cell layer: LLC-PK1 cell layers; for Mannitol Flux: given as Decr (decrease)
Experimental: FIG. 7A provides a graph of transepithelial resistance of untreated (control) LLC-PK1 cell layers or LLC-PK1 cell layers treated with 50 μM, 100 μM, or 200 μM zinc. FIG. 7B provides a graph of ^14C-D-mannitol leak across untreated (control) LLC-PK1 cell layers or LLC-PK1 cell layers treated with 50 μM, 100 μM, or 200 μM zinc.
as §2

[22] = tested on: colonic (CACO-2) epithelial cell layers; details: quercetin treatment; Suzuki et al. 2009; cited from earlier work
[23] = tested on: occludin; details: cited from earlier work
[24] = tested on: tricellulin; test: Tricellulin amount in CACO-2 cell layers; type: cell-based, human; details: 50 or 100 micromolar zinc; CACO-2 cell layer
Source text: (§3) When the effects of 50 or 100 micromolar zinc were examined on the TJ permeability of a human colonic (CACO-2) epithelial cell layer, the results were quite different. Here the Rt increased as with the renal epithelium. However, there was an increase—as opposed to a decrease—in a D-mannitol diffusion. In other words, zinc decreased leak to salts but increased leak to small nonelectrolytes. […] Even though the overall cellular content of the tight junction protein(s) may not be affected, zinc may cause a ‘shift’ in certain tight junction protein (e.g., certain claudins) out of the tight junctional complex and into the cell's cytoplasm.

[25] = tested on: human colonic (CACO-2) epithelial cell layer; test: D-mannitol diffusion across CACO-2 cell layers; type: cell-based; details: 50 or 100 micromolar zinc; CACO-2 cell layer
Source text: as §3

[26] = tested on: claudin-4; test: Claudin 4 amount in colonic (CACO-2) epithelial cell layers; type: cell-based, human; details: 50 or 100 micromolar zinc; CACO-2 cell layer
Source text: as §3

[27] = tested on: small intestine; details: zinc supplementation, Zhang et al. 2009; cited from earlier work
[28] = tested on: human colonic (CACO-2) epithelial cell layer; test: Transepithelial electrical resistance (Rt) across CACO-2 cell layers; type: cell-based; details: 50 or 100 micromolar zinc; CACO-2 cell layer
Source text: as §3

[29] = tested on: ZO-1; details: zinc supplementation; small intestine; Zhang et al. 2009; cited from earlier work
[30] = tested on: occludin; details: zinc supplementation; small intestine; Zhang et al. 2009; cited from earlier work
[31] = tested on: occludin; test: Occludin amount / localization in colonic (CACO-2) epithelial cell layers; type: cell-based, human; details: 50 or 100 micromolar zinc; CACO-2 cell layer
Source text: as §3

[32] = tested on: claudin-1; test: Claudin 1 amount / localization in colonic (CACO-2) epithelial cell layers; type: cell-based, human; details: 50 or 100 micromolar zinc; CACO-2 cell layer
Source text: as §3

[33] = tested on: claudin 2; test: Claudin 2 amount in colonic (CACO-2) epithelial cell layers; type: cell-based, human; details: 50 or 100 micromolar zinc; CACO-2 cell layer
Source text: as §3

[34] = tested on: claudin 7; test: Claudin 7 amount in colonic (CACO-2) epithelial cell layers; type: cell-based, human; details: 50 or 100 micromolar zinc; CACO-2 cell layer
Source text: as §3

[35] = tested on: ZO-1; details: zinc; colonic (CACO-2) epithelia; Finamore et al. 2008; cited from earlier work
[36] = tested on: claudin 3; test: Claudin 3 amount in colonic (CACO-2) epithelial cell layers; type: cell-based, human; details: 50 or 100 micromolar zinc; CACO-2 cell layer
Source text: as §3

[37] = tested on: claudin 5; test: Claudin 5 amount in colonic (CACO-2) epithelial cell layers; type: cell-based, human; details: 50 or 100 micromolar zinc; CACO-2 cell layer
Source text: as §3

[38] = glutamine, CACO-2 epithelial cell layers, Li et al. 2009
[39] = quercetin 0.2 mM, CACO-2, Amasheh et al. 2008
[40] = quercetin, independent study, Suzuki et al. 2009
[41] = zinc at 50 and 100 micromolar, LLC-PK1 epithelium
[42] = zinc, LLC-PK1 renal epithelial model

N=C(N)NCCC[C@H](N)C(=O)O [arginine]
barrier-enhancing effects (compared with glutamine) [1]: very similar barrier-enhancing effects

NC(=O)CC[C@H](N)C(=O)O [glutamine]
mannitol diffusion [2, 38]: decreased
Rt [3, 38]: increased
toxicity-related increases in TJ leakiness [4]: reverse
claudin-1 expression [5, 38]: increasing

c1ccc2[nH]ccc2c1 [indole]
Claudin-5 ([6]; 1 mM Indole): Incr 150%
expression of Claudin 5 ([6]; indole (1 mM, FIG. 5B)): upregulated
effect on claudin 7 ([7]; indole, LLC-PK1 cells): less than 50%
abundance of claudin-2 [8]: decreased
Rt [9]: increased
Tricellulin ([10]; 1 mM Indole): Decr 10%
effect on tricellulin ([10]; indole, LLC-PK1 cells): less than 50%
Claudin-3 ([11]; 1 mM Indole): Decr 20%
effect on claudin 3 ([11]; indole, LLC-PK1 cells): less than 50%
transepithelial resistance ([12]; 1 mM Indole, given as Incr (increase)): Incr 30%
transepithelial resistance ([12]; indole (0.1, 1, 2 mM, FIG. 6)): increased
Claudin-4 ([13]; 1 mM Indole): Incr 100%
expression of Claudin 4 ([13]; indole (1 mM, FIG. 5A), LLC-PK1 cells): upregulated
effect on occludin ([14]; indole, LLC-PK1 cells): less than 50%
Claudin-1 ([15]; 1 mM Indole, LLC-PK1 cell layers, given as Decr (decrease)): Decr 30%
effect on claudin 1 ([15]; indole, LLC-PK1 cells): less than 50%
Claudin-2 ([16]; 1 mM Indole): Decr 40%
effect on claudin 2 ([16]; indole, LLC-PK1 cells): less than 50%

O=c1c(O)c(-c2ccc(O)c(O)c2)oc2cc(O)cc(O)c12 [quercetin]
amount of claudin 7 [17]: unaffected
Claudin-5 ([6]; 400 μM Quercetin): Incr 100%
expression of Claudin 5 ([6]; 400 μM quercetin, FIG. 3B): upregulated
TJ permeability to the nonelectrolyte D-mannitol [2, 39]: no significant effect
TJ content of claudin-4 [18, 39]: dramatic increase
increase in claudin-4 [18, 40]: confirmed
Claudin-7 ([7]; 400 μM Quercetin, LLC-PK1 cell layers, given as Incr (increase)): Incr 200%
cellular redistribution of ZO-2 [19]: cellular redistribution
Tricellulin ([10]; 400 μM Quercetin): Decr 15%
TJ permeability to Na+ and Cl− ions [3, 39]: decreased
Rt ([3]; quercetin 0.2 mM, colonic (CACO-2) epithelial cell layers, Amasheh et al. 2008): increased
Claudin-3 ([11]; 400 μM Quercetin): Decr 30%
amount of claudin 3 [20]: unaffected
transepithelial resistance ([12]; 400 μM Quercetin, given as Incr (increase)): Incr > 20%
transepithelial resistance ([12]; quercetin (100, 200, 400 μM, FIG. 4A)): increased
Claudin-4 ([13]; 400 μM Quercetin): Incr 75%
Mannitol Flux ([21]; 400 μM Quercetin): Decr > 20%
mannitol leaking across the cell layer ([21]; quercetin (100, 200, 400 μM, FIG. 4B)): decrease
permeability of the electrically charged dye Lucifer yellow [22]: decreased
amount of occludin [23, 39]: unaffected
cellular redistribution of occludin [23, 40]: cellular redistribution
amount of claudin 1 [5, 39]: unaffected
cellular redistribution of claudin-1 [5, 40]: cellular redistribution
Claudin-2 ([16]; 400 μM Quercetin): Decr 75%
expression of Claudin 2 ([16]; 400 μM quercetin, LLC-PK1 cells, FIG. 3A): downregulated

[Zn] [zinc]
claudin 5 expression by Western immunoblot [6, 41]: none had exhibited increased or decreased expression
tricellulin amount [24]: no changes
D-mannitol diffusion [25]: increase
claudin 4 amount [26]: no changes
tricellulin expression by Western immunoblot [10, 41]: none had exhibited increased or decreased expression
leakage of the small non-electrolyte lactulose [27]: decreasing
Rt [28]: increased
claudin 3 expression by Western immunoblot [11, 41]: none had exhibited increased or decreased expression
levels of ZO-1 [29]: increased
transepithelial resistance ([12]; 100 μM Zn, given as Incr (increase)): Incr > 40%
transepithelial resistance ([12]; zinc (50, 100, 200 μM, FIG. 7A)): increased
transepithelial electrical resistance (Rt) ([12]; zinc at 50 and 100 micromolar, renal proximal tubular-like (LLC-PK1) epithelium): increased
levels of occludin [30]: increased
claudin 4 expression by Western immunoblot [13, 41]: none had exhibited increased or decreased expression
shift of claudin 4 out of the tight junctional complex into the cytoplasm [13, 42]: has been observed
occludin amount [31]: no changes
claudin 1 amount [32]: no changes
Mannitol Flux ([21]; 100 μM Zn): Decr > 20%
mannitol leaking across the cell layer ([21]; zinc (50, 100, 200 μM, FIG. 7B)): decrease
transepithelial diffusion of D-mannitol [21, 41]: decreased
claudin 2 amount [33]: significant decreases
claudin 7 amount [34]: significant decreases
occludin expression by Western immunoblot [14, 41]: none had exhibited increased or decreased expression
localization of occludin ([23]; zinc, colonic (CACO-2) epithelia, Finamore et al. 2008): regulate the localization
localization of ZO-1 [35]: regulate the localization
claudin 3 amount [36]: no changes
claudin 1 expression by Western immunoblot [15, 41]: none had exhibited increased or decreased expression
claudin 2 expression by Western immunoblot [16, 41]: none had exhibited increased or decreased expression
shift of claudin 2 out of the tight junctional complex into the cytoplasm [16, 42]: has been observed
claudin 5 amount [37]: no changes
